Values of other authors, collected in paper PMC11014758 (ACS infectious diseases, 2024).

How the values were obtained:
LasR [1] = target: T1, LasR (Pseudomonas aeruginosa, UniProt P25084); conditions: same strain, analogous assay conditions; ref Moore et al. 2015 [15]
LasR [2] = target: T1, LasR; conditions: same strain, analogous assay conditions; ref Moore et al. 2015 [15]; remark: listed apart in the source

T1 sequence (P25084 whole entry): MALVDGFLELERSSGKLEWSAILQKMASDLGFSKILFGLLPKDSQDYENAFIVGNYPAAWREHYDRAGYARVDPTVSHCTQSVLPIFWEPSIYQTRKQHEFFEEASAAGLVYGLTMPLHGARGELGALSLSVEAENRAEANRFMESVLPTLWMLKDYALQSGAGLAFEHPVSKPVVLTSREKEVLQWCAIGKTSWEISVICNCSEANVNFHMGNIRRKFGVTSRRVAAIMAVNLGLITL

Molecule: CCCCCCCCCC(=O)CC(=O)N[C@H]1CCOC1=O [OdDHL, N-(3-oxo)-dodecanoyl L-homoserine lactone]
- Maximum Activation (LasR [1]): 100%

Molecule: CCCCCCCCCNC(=O)CC(=O)c1ccccc1 [V-06–018]
- IC50 (LasR [2]): 5.2 µM

Molecule: chlorolactone [CL]
- IC50 (LasR [2]): 21 µM
- Maximum Inhibition (LasR [2]): 55%
